Test results from US10188770B2, “Dental implant having enhanced early stability and method for manufacturing same” (OSSTEMIMPLANT CO., LTD., priority 2014, dated 2019).

What was measured:
[1] = tested on: tibia of micropigs; details: implants coated with rhBMP-2 and alendronate vs implants coated only with rhBMP-2, after 16 days, FIG. 6
Protocol: (§1) In order to impart hydrophilicity to the implants which were subjected to the above processes, the titanium surface was hydrophilized by plasma treatment (RFGD, O2, etc.) for 1 minutes and light radiation (ultraviolet rays, ultraviolet-ozone, etc.) for 5 minutes. Then, a 10 ml solution of 40 μg Alendronate, 40 μg Zolendronate, 1 μg BMP-2, and 40 μg Alendronate+1 μg BMP-2 was uniformly applied to the surface, and the prepared implants, in which the solution was not dried, were used in the following Examples 2, 3 and 4.

[2] = tested on: mandible and tibia of micropigs; details: hydrophilized implants coated with alendronate vs uncoated implants, 0 to 6 weeks, FIGS. 3 and 4
Protocol: as §1

[3] = tested on: implant-bone interface; assay: Removal torque of coated implants just after coating and after 3-year storage; assay type: in vivo; parameters: Removal torque: unit not given here; details: for removal torque compared with other bisphosphonates and bare implant (in words): summary of Table 1, bisphosphonate-coated implants; for removal torque compared with other dental implants (in words): summary of Table 2, implants coated with both rhBMP-2 and bisphosphonate
Protocol: In order to confirm the long-time storage stabilities of implant, osseointegration at implant-bone interface were measured via removal torque.
Each dental implant was coated with various bisphosphonates as described example 1 and its removal torque was measured just after coating step and 3-year self-storage, respectively.
Similarly, osseointegration at implant-bone interface were measured via removal torque for dental implants wherein the osteoclast activity inhibitor coating film further comprises a bone growth factor (BMP-2) as shown in Table 2.

[4] = storage period 0 year, implants coated with 10 ml solution of 40 μg bisphosphonate
[5] = storage period 0 year, implants coated with 10 ml solution of 40 μg bisphosphonate and 1 μg rhBMP-2
[6] = storage period 3 year, implants coated with 10 ml solution of 40 μg bisphosphonate
[7] = storage period 3 year, implants coated with 10 ml solution of 40 μg bisphosphonate and 1 μg rhBMP-2

## NCCCC(O)(P(=O)(O)O)P(=O)(O)O [Alendronate]
[1]
  increase of removal torque compared to the negative control group: about 23%
[2]
  decrease in ISQ values compared to the negative control group: little decrease in ISQ values or the degree of the decrease was very lower
[3]; [4]
  Removal torque: 100.2 ± 8.4
[3]; [5]
  Removal torque: 130.1 ± 9.7
[3]; [6]
  Removal torque: 99.4 ± 11.8
[3]; [7]
  Removal torque: 129.8 ± 13.1
[3]
  removal torque compared with other bisphosphonates and bare implant (in words): higher removal torque
  removal torque compared with other dental implants (in words): higher removal torque value

## CCCCCN(C)CCC(O)(P(=O)(O)O)P(=O)(O)O [Ibandronate]
[3]; [4]
  Removal torque: 98.4 ± 12.1
[3]; [5]
  Removal torque: 128.8 ± 13.4
[3]; [6]
  Removal torque: 85.4 ± 12.5
[3]; [7]
  Removal torque: 110.8 ± 13.4

## NCCC(O)(P(=O)(O)O)P(=O)(O)O [Pamindronate]
[3]; [4]
  Removal torque: 99.6 ± 7.9
[3]; [5]
  Removal torque: 127.5 ± 12.2
[3]; [6]
  Removal torque: 84.1 ± 11.4
[3]; [7]
  Removal torque: 109.7 ± 12.2

## O=P(O)(O)C(O)(Cc1cccnc1)P(=O)(O)O [Resendronate]
[3]; [4]
  Removal torque: 103.5 ± 9.3
[3]; [5]
  Removal torque: 128.1 ± 11.6
[3]; [6]
  Removal torque: 83.2 ± 9.3

## O=P(O)(O)C(O)(Cn1ccnc1)P(=O)(O)O [Zolendronate]
[3]; [4]
  Removal torque: 104.4 ± 11.1
[3]; [5]
  Removal torque: 134.4 ± 11.9
[3]; [6]
  Removal torque: 103.8 ± 8.9
[3]; [7]
  Removal torque: 132.5 ± 10.7
[3]
  removal torque compared with other bisphosphonates and bare implant (in words): higher removal torque
  removal torque compared with other dental implants (in words): higher removal torque value
